# Results as given in patent publication US8466162B2, “5-alkynyl-pyridines” (Boehringer Ingelheim International GmbH, priority 2011, dated 2013).
# Experiments:
# PI3Kalpha = target: T1, PI3Kalpha (Homo sapiens, UniProt P42336); experiment: Inhibition of PI3Kalpha-induced PIP-2 phosphorylation (filter-binding assay, 33P-ATP); assay type: biochemical; conditions: PI3 Kinase alpha (p85alpha/His-p110alpha), 1 μM ATP; read-out: IC50 PI3Kα
# T1 construct: His (N); made in house; host or cells: SF9 insect cells (baculovirus co-infection)
# Method: Biological Methods Inhibition of PI3Kalpha-Induced PIP-2 Phosphorylation
# See also J. A. Engelman, Nature Reviews Cancer, 2009, 9, 550-562; A. Carnero, Expert Opin. Investig. Drugs, 2009, 18, 1265-1277 and P. Liu et al., Nature Reviews Drug Discovery, 2009, 8, 627-64.
# Method Type: Filter-Binding-Assay
# Aliquoted in desired amounts and stored at −80° C. […] Assay Procedure
# The substrate-containing lipid vesicles are dissolved to a concentration of 0.637 mg lipid blend/ml assay buffer (with BSA, freshly added) in 50 ml Falcon ->keep on ice, followed by ultrasonication (pulse of 15 sec followed by a pause of 10 sec, 4×). Compounds are serially diluted in assay buffer+6% DMSO and 10 μl of each dilution is added per well of a 96-well plate (compounds are tested in duplicates) and mixed with 30 μl of the lipid vesicles containing PDGFR-Peptide (0.5 μM final) and PI3K alpha (25 ng/well final). The mixture is then incubated for 20 minutes at room temperature.
# Subsequently, 20 μl of assay buffer containing 3 μM cold ATP and 0.5 μCi/20 μl 33P-ATP are added. The plates are then incubated at room temperature for 120 minutes (shaking with 300 rpm).
# The reaction mix is transferred onto filter plates using “filtermate harvester” from Packard: filter plates are rinsed with PBS, then the reaction mix is filtered onto the filter plate, washed 5 times with PBS and are allowed to dry for 30-60 minutes at 50° C. The plate bottom is sealed with Perkin Elmer white adhesive foil and 25 μl/well Microscint0 are added, the top is covered with transparent adhesive foil and the plate is measured with Wallac Trilux 1450 Microbeta Counter.
# As positive control serve wells containing vehicle controls (1% DMSO in assay buffer), showing non-inhibited kinase activity (high values). Wells containing assay buffer instead of enzyme can serve as control for background activity (low values).
# Calculate IC50 values using the Smiley program (based on GrapPad Prism)
# H460 cells = experiment: alamarBlue H460 cell assay (antiproliferative/cytotoxicity); assay type: cell-based; conditions: NCI-H460; H460 human lung carcinoma cells
# Description: (§1) The H460, MB453, U87, MCF7 and BT474 alamarBlue cell assays provide EC50 values indicative of the antiproliferative or cytotoxic effects of the compounds to respectively the H460 (human non small cell line cancer), MB-453 (breast cancer cell line), U87 (glioblastoma cell line), MCF7 (breast cancer cell line) and BT474 (breast cancer cell line). As known in the field, antiproliferative or cytotoxic effect against this cell lines would be expected to be indicative of activity in treating lung, breast and brain cancers. See R. Marone R et al. Biochim. Biophys. Acta. 2008 January; 1784(1):159-85. S. Yaguchi et al., J. Natl. Cancer Inst. 2006 Apr. 19; 98(8):545-56.
# (§2) Method Type: Antiproliferative/Cytotoxicity
# (§3) alamarBlue® is designed to provide a rapid and sensitive measure of cell proliferation and cytotoxicity in various human and animal cell lines. The assay is based on the reduction of alamarBlue in the reducing environment of living (metabolically active) cells. In the presence of added cytotoxic or antiproliferative compounds, the innate metabolic activity ceases.
# (§4) AlamarBlue is soluble and stable in culture medium. Measurements are made fluorometrically by exciting at 530-560 nm and measuring emission at 590 nm. In reporting percent alamarBlue reduction by monitoring fluorescence, data are expressed as fluorescence emission intensity units as a function of time of incubation.
# (§5) 3. Equipment • 96-well plates, flat bottom (Falcon, Cat. No.: 353072) • 96-well plates, U-shaped (Costar, Cat. No.: 3799) • CO2-Incubator • Microplate Reader, Spectramax Plus, Molecular Devices 4. Typical Procedure • Day 0: Seed 3000 BT-474 cells (IMDM/5% FCS, 1% NEAA, 1% Sodiumpyruvat) in 150 μl medium into a 96-well plate, flat bottom (include mediumblank). Incubate plates at 37° C. in a CO2 incubator overnight. • Day 1: Dilute compounds to a concentration 40 μM ->1:3 in medium, 10 dilution steps, in 96-well plates. • Add 50 μl per well of each dilution (total volume per well 200 μl; final conc. of cpds: 10 μM ->1:3). If required, test further dilutions. • All concentrations are tested in duplicates. • Controls: Cells w/o cpd. (+50 μl medium/DMSO). • Cells are incubated with compounds for 5-6 days. • Day 6 or 7: Add 25 μl of alamarBlue solution to each well and incubate for 8 hours at 37° C. Measure fluorescence by exciting at 530-560 nm and measuring emission at 590 nm 5. Evaluation • Subtract average value for medium blank from sample readings • Calculate EC50 using GraphPad Prism (Fifty)
# MB453 cells = experiment: alamarBlue MB453 cell assay (antiproliferative/cytotoxicity); assay type: cell-based; conditions: Homo sapiens; MDA MB 453 breast cancer cell line
# Description: as §1, §2, §3, §4, §5
# U87 cells = experiment: alamarBlue U87 cell assay (antiproliferative/cytotoxicity); assay type: cell-based; conditions: U-87MG human glioblastoma cells
# Description: as §1, §2, §3, §4, §5
# BT474 cells = experiment: alamarBlue BT474 cell assay (antiproliferative/cytotoxicity); assay type: cell-based; conditions: BT-474 human breast cancer cell line, 5-6 days incubation
# Description: as §1, §2, §3, §4, §5
# MCF7 cells = experiment: alamarBlue MCF7 cell assay (antiproliferative/cytotoxicity); assay type: cell-based; conditions: MCF7 human breast cancer cell line
# Description: as §1, §2, §3, §4, §5
# T1 sequence (P27986 whole entry): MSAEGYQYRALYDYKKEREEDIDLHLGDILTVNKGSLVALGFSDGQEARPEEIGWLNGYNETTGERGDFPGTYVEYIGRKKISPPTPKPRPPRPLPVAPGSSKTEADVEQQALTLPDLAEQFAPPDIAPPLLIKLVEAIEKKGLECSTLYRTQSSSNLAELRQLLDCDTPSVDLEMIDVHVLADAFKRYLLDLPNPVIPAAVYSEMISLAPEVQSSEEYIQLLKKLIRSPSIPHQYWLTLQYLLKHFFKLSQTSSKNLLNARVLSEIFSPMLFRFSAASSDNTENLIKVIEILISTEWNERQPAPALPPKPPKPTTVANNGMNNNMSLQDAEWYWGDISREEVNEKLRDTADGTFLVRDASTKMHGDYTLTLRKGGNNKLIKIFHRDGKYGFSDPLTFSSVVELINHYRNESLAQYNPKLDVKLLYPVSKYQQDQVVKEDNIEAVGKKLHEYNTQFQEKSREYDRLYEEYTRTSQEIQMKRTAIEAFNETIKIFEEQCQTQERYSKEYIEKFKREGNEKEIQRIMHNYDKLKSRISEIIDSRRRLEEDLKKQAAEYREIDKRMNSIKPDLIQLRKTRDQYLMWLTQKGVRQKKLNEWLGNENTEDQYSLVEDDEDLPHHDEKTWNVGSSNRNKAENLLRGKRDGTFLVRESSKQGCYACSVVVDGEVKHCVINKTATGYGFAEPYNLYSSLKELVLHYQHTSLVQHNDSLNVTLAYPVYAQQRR
# T1 sequence (P42336 whole entry): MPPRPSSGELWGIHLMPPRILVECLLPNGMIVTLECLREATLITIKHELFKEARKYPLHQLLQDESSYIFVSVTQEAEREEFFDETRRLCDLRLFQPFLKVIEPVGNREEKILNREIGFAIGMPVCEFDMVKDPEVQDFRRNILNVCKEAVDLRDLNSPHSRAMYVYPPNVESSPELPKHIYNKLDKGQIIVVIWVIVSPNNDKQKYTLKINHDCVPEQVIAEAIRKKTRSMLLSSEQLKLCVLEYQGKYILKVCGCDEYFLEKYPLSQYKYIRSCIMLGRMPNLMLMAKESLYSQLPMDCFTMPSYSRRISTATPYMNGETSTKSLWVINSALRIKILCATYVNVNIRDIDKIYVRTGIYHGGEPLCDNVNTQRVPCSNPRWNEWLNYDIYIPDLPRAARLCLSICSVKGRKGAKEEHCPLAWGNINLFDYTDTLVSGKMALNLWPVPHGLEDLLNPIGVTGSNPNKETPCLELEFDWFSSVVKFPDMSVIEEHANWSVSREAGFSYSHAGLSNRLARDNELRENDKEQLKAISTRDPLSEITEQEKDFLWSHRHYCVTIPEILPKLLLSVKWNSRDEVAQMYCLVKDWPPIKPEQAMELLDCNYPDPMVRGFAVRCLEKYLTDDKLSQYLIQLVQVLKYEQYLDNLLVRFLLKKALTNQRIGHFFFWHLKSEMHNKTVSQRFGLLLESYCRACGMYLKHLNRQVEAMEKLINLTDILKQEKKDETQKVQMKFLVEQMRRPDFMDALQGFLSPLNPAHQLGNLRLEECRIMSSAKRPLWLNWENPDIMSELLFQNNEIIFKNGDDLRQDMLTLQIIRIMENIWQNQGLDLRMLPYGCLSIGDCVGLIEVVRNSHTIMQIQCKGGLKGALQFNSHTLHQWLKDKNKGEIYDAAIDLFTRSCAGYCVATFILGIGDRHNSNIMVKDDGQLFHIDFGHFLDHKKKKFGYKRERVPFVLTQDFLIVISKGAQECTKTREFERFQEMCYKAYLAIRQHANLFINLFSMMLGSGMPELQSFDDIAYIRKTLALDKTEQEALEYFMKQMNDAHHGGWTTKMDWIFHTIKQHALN
Compound,IC50 (PI3Kalpha),EC50 (H460 cells),EC50 (MB453 cells),EC50 (U87 cells),EC50 (BT474 cells),EC50 (MCF7 cells)
"CCc1ncnc(-c2ccnc(C)c2)c1C#Cc1cnc(C)c(NS(=O)(=O)c2ccc(OC)cc2OC)c1 [Example 98, N-{5-[4-Ethyl-6-(2-methyl-pyridin-4-yl)-pyrimidin-5-ylethynyl]-2-methyl-pyridin-3-yl}-2,4-dimethoxy-benzenesulfonamide]",2 nM,288 nM,437 nM,559 nM,225 nM,–
"CCc1ncnc(-c2ccnc(C)c2)c1C#Cc1cnc(C)c(NS(=O)(=O)c2ccc(C(C)(C)C)cc2)c1 [Example 99, 4-tert-Butyl-N-{5-[4-ethyl-6-(2-methyl-pyridin-4-yl)-pyrimidin-5-ylethynyl]-2-methyl-pyridin-3-yl}-benzenesulfonamide]",11 nM,2490 nM,2930 nM,2420 nM,4970 nM,–
"CCc1ncnc(-c2ccnc(C)c2)c1C#Cc1cnc(C)c(NS(=O)(=O)c2cc(C)ccc2OC)c1 [Example 102, N-{5-[4-Ethyl-6-(2-methyl-pyridin-4-yl)-pyrimidin-5-ylethynyl]-2-methyl-pyridin-3-yl}-2-methoxy-5-methyl-benzenesulfonamide]",1 nM,104 nM,146 nM,319 nM,149 nM,–
"CCc1ccc(S(=O)(=O)Nc2cc(C#Cc3c(CC)ncnc3-c3ccnc(C)c3)cnc2C)cc1 [Example 100, 4-Ethyl-N-{5-[4-ethyl-6-(2-methyl-pyridin-4-yl)-pyrimidin-5-ylethynyl]-2-methyl-pyridin-3-yl}-benzenesulfonamide]",5 nM,558 nM,746 nM,819 nM,733 nM,–
"CCc1ncnc(-c2ccc(CN)nc2)c1C#Cc1cnc(C)c(NS(=O)(=O)c2ccc(F)cc2F)c1 [Example 104, N-{5-[4-(6-Aminomethyl-pyridin-3-yl)-6-ethyl-pyrimidin-5-ylethynyl]-2-methyl-pyridin-3-yl}-2,4-difluoro-benzenesulfonamide]",0.64 nM,955 nM,119 nM,605 nM,127 nM,–
"CCc1ncnc(-c2cccc(C#N)c2)c1C#Cc1cnc(C)c(NS(=O)(=O)c2ccc(F)cc2F)c1 [Example 29, N-{5-[4-(3-Cyano-phenyl)-6-ethyl-pyrimidin-5-ylethynyl]-2-methyl-pyridin-3-yl}-2,4-difluoro-benzenesulfonamide]",0.92 nM,255 nM,258 nM,–,282 nM,83 nM
"CCc1ncnc(-c2ccc(CN)nc2)c1C#Cc1cnc(C)c(NS(=O)(=O)c2ccccc2C(F)(F)F)c1 [Example 105, N-{5-[4-(6-Aminomethyl-pyridin-3-yl)-6-ethyl-pyrimidin-5-ylethynyl]-2-methyl-pyridin-3-yl}-2-trifluoromethyl-benzenesulfonamide]",0.93 nM,958 nM,152 nM,406 nM,1210 nM,–
"COc1ncc(C#Cc2c(C)nc(N)nc2-c2ccnc(C)c2)cc1NS(C)(=O)=O [Example 21, N-{5-[2-Amino-4-methyl-6-(2-methyl-pyridin-4-yl)-pyrimidin-5-ylethynyl]-2-methoxy-pyridin-3-yl}-methanesulfonamide]",2 nM,87 nM,–,–,295 nM,22 nM
"CNC(=O)c1ccc(-c2nc(N)nc(C)c2C#Cc2cnc(C)c(NS(C)(=O)=O)c2)cc1Cl [Example 25, 4-[2-Amino-5-(5-methanesulfonylamino-6-methyl-pyridin-3-ylethynyl)-6-methyl-pyrimidin-4-yl]-2-chloro-N-methyl-benzamide]",3 nM,376 nM,–,–,231 nM,122 nM
"CCc1ncnc(-c2ccnc(C)c2)c1C#Cc1cnc(C)c(NS(=O)(=O)c2cc(Cl)ccc2OC)c1 [Example 101, 5-Chloro-N-{5-[4-ethyl-6-(2-methyl-pyridin-4-yl)-pyrimidin-5-ylethynyl]-2-methyl-pyridin-3-yl}-2-methoxy-benzenesulfonamide]",0.65 nM,82 nM,89 nM,259 nM,102 nM,–
"CCc1ncnc(-c2ccc(C(=O)N3CCN(C)CC3)c(F)c2)c1C#Cc1cnc(C)c(NS(C)(=O)=O)c1 [Example 81, N-(5-{4-Ethyl-6-[3-fluoro-4-(4-methyl-piperazine-1-carbonyl)-phenyl]-pyrimidin-5-ylethynyl}-2-methyl-pyridin-3-yl)-methanesulfonamide]",3 nM,2350 nM,–,–,477 nM,301 nM
"CCc1nc(N)nc(-c2cccc(C#N)c2)c1C#Cc1cnc(C)c(NS(=O)(=O)c2ccc(F)cc2F)c1 [Example 34, N-{5-[2-Amino-4-(3-cyano-phenyl)-6-ethyl-pyrimidin-5-ylethynyl]-2-methyl-pyridin-3-yl}-2,4-difluoro-benzenesulfonamide]",0.9 nM,147 nM,174 nM,–,107 nM,17 nM
"CCc1nc(N)nc(-c2ccc(C3CC3)nc2)c1C#Cc1cnc(C)c(NS(C)(=O)=O)c1 [Example 13, N-{5-[2-Amino-4-(6-cyclopropyl-pyridin-3-yl)-6-ethyl-pyrimidin-5-ylethynyl]-2-methyl-pyridin-3-yl}-methanesulfonamide]",0.74 nM,141 nM,–,–,132 nM,24 nM
"CCc1ncnc(-c2cccc(CN(C)C)c2)c1C#Cc1cnc(C)c(NS(=O)(=O)c2ccc(F)cc2F)c1 [Example 30, N-{5-[4-(3-Dimethylaminomethyl-phenyl)-6-ethyl-pyrimidin-5-ylethynyl]-2-methyl-pyridin-3-yl}-2,4-difluoro-benzenesulfonamide]",2 nM,347 nM,188 nM,–,108 nM,77 nM
"CCc1nc(N)nc(-c2ccc(C(=O)N3CCN(C)CC3)c(F)c2)c1C#Cc1cnc(C)c(NS(C)(=O)=O)c1 [Example 82, N-(5-{2-Amino-4-ethyl-6-[3-fluoro-4-(4-methyl-piperazine-1-carbonyl)-phenyl]-pyrimidin-5-ylethynyl}-2-methyl-pyridin-3-yl)-methanesulfonamide]",1 nM,2270 nM,–,–,511 nM,194 nM
"COc1ncc(C#Cc2c(C)nc(N)nc2-c2ccnc(C)c2)cc1NS(=O)(=O)c1ccc(F)cc1F [Example 22, N-{5-[2-Amino-4-methyl-6-(2-methyl-pyridin-4-yl)-pyrimidin-5-ylethynyl]-2-methoxy-pyridin-3-yl}-2,4-difluoro-benzenesulfonamide]",0.36 nM,13 nM,–,–,29 nM,3 nM
